# Test system: not listed separately
# Assay: In vivo pharmacokinetics in female BALB/c mice
# Set-up: species or system mouse
# Settings: 5 mg/kg po vs 1 mg/kg iv
# Protocol: All procedures involving animals were performed in accordance with national Home Office regulations under the Animals (Scientific Procedures) Act 1986 and within guidelines set out by the Institute's Animal Ethics Committee and the United Kingdom Coordinating Committee for Cancer Research's ad hoc Committee on the Welfare of Animals in Experimental Neoplasia. Female BALB/c mice (Charles River Laboratories) at 6 weeks of age were used for the PK analyses. The mice were dosed orally by gavage (5 mg/kg in DMSO:water 1:19 v:v; n=6) or intravenously in the tail vein (1 mg/kg in DMSO:Tween20:saline 10:1:89 v:v:v; n=6). Blood samples (˜20 μL) were taken from the tail vein from each group of mice (2 groups, 3 mice/group) alternated at 5, 15 and 30 minutes, 1, 2, 4 and 6 and 8 hours after dosing. For clarity, group 1 was bled at 5 minutes, 30 minutes, 2 hours and 6 hours; group 2 was bled at 15 minutes, 1 hour, 4 hours and 8 hours. Plasma samples were snap frozen in liquid nitrogen and then stored at −80° C. prior to analysis.
# Test compound solutions (1 mg/mL in DMSO) were used to make stock Standard Curve (SC) and Quality Control (QC) solutions at appropriate concentrations. Blank plasma was spiked with stock solutions to produce a 9-point standard curve ranging from 1.5-10,000 […]; with 2 QC concentrations within this range and where the DMSO concentration was 10% of the plasma volume. Plasma PK samples, Standards and QC's were added to individual Eppendorf tubes and DMSO (10% of plasma volume) was added to the plasma PK samples. SC, QC and plasma samples were extracted with methanol (100 μL) containing internal standard. Following protein precipitation, the samples were centrifuged for 10 minutes in a refrigerated centrifuge (4° C.) at 14000 rpm. The supernatants were removed to a 96-well plate and centrifuged for a further 10 minutes in a refrigerated centrifuge (4° C.) at 3700 rpm. Samples were analysed by Liquid Chromatography Mass Spectrometry (LC-MS/MS) for the compound plasma concentrations. Non-compartmental analysis was performed on plasma concentration data using the Excel macro PK Solver 2.0.
row,Compound,F [%]
1,"O=C1CCc2cc(NC(=O)c3scnc3-c3cccc(F)c3)ccc2N1 [ALDHI-1003, 4-(3-fluorophenyl)-N-(2-oxo-3,4-dihydro-1H-quinolin-6-yl)thiazole-5-carboxamide]",100

# Same assay, conditions: mouse, plasma, iv, 1 mg/kg intravenously, read-out: Cl iv
row,Compound,clearance [mL/min/kg]
1,"O=C1CCc2cc(NC(=O)c3scnc3-c3cccc(F)c3)ccc2N1 [ALDHI-1003, 4-(3-fluorophenyl)-N-(2-oxo-3,4-dihydro-1H-quinolin-6-yl)thiazole-5-carboxamide]",22.1

# Same assay, conditions: mouse, po, 5 mg/kg orally by gavage, plasma
Compound,AUC [µM·h],Cmax [µM]
"CN(CCOc1ccc2c(c1)CCC(=O)N2)C(=O)c1cccc(F)c1 [ALDHI-3008, 3-fluoro-N-methyl-N-[2-[(2-oxo-3,4-dihydro-1H-quinolin-6-yl)oxy]ethyl]benzamide]",1.5,1.8
"O=C1CCc2cc(NC(=O)c3scnc3-c3cccc(F)c3)ccc2N1 [ALDHI-1003, 4-(3-fluorophenyl)-N-(2-oxo-3,4-dihydro-1H-quinolin-6-yl)thiazole-5-carboxamide]",13.3,6.1

# Biological target: T1, ALDH2 (Homo sapiens, UniProt P05091)
# T1 sequence (P05091 18-517): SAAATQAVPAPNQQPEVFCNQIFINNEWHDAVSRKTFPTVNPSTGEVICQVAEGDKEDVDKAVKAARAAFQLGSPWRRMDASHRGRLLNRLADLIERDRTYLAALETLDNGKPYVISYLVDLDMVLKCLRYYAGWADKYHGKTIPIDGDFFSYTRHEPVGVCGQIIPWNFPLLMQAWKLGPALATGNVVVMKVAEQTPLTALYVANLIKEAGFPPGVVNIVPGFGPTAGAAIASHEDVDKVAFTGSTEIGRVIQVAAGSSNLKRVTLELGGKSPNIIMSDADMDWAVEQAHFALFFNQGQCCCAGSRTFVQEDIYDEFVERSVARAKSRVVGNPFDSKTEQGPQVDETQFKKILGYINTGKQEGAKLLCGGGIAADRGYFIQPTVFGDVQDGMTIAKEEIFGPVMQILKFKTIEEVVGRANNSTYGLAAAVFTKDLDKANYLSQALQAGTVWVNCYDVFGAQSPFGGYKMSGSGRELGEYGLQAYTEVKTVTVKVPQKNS
# Assay: Selectivity biochemical assay, NAD(P)H-Glo Detection System
# Settings: not given
# Protocol: Materials: ALDH2 was purchased from Abnova. Tris(hydroxymethyl)aminomethane (Tris) was purchased from MP Biomedicals. TCEP, ethylenediaminetetraacetic acid (EDTA), propionaldehyde, DMSO and Tween-20 were purchased from Sigma. Nicotinamide adenine dinucleotide (NAD) was obtained from Abcam. The NAD(P)H-Glo™ Detection System was purchased from Promega. White, non-binding surface, 384 well plates were supplied by Corning (#3574).
# Method: Inhibition of ALDH1A3 was assessed using the NAD(P)H-Glo™ Detection System (Cat. No. G9062) from Promega. This assay detects the production of NADH from NAD by ALDH1A3 via the coupled enzymatic conversion of a proluciferin reductase substrate to generate a luminescent signal. Inhibition of ALDH1A3 by small molecule inhibitors will result in reduction or abrogation of luminescence signal increase above background. Inhibition of ALDH1A1, ALDH1A2 and ALDH2 (selectivity assays) were assessed using the same assay.
# Compounds were dosed into Corning 384 well assay plates using an Echo acoustic dispenser to give 10 point curves in a 3-fold dilution series. Compounds were dispensed from a 20 mM DMSO stock and initially screened at a top concentration of 20 μM (ALDH1A3) or 250 μM (ALDH1A1, ALDH1A2 & ALDH2). Enzyme was added to the plate in a 5 μL volume, according to the final concentrations in table 1 below, and pre-incubated with compound for 30 minutes at room temperature before the addition of 5 μL of the substrate (propionaldehyde) and cofactor (NAD), to effect final concentrations equal to the Km as shown in Table 1. The assay buffer used consisted of 40 mM Tris for 1A1 (pH 7.6), 1A2 (pH 7.6) and 1A3 (pH 9.0) and 10 mM Tris for ALDH2 (pH 8.0) supplemented with 1 mM TCEP, 0.01% Tween-20, 0.1 mM EDTA. The reaction mix was incubated at 26° C. on a shaking incubator for 30 minutes before being stopped by the addition of 10 μL of the Promega detection reagent and 100×IC50 of inhibitors of the respective isoforms. After stopping the reaction the plate was incubated for 60 minutes at room temperature and the luminescence signal read on a PheraStar FS microplate reader (BMG Labtech) and resulting IC50 values were calculated using Dotmatics software.
# Enzyme, substrate and cofactor concentrations were selected to ensure the reaction ran under initial velocity conditions.
row,Compound,IC50 [µM]
1,"CN(CCOc1ccc2c(c1)CCC(=O)N2)C(=O)c1cccc(F)c1 [ALDHI-3008, 3-fluoro-N-methyl-N-[2-[(2-oxo-3,4-dihydro-1H-quinolin-6-yl)oxy]ethyl]benzamide]",≥ 100
2,"C[C@H](c1ccccc1)N(CCO)CCOc1ccc2c(c1)CCC(=O)N2 [ALDHI-3006, 6-[2-[2-hydroxyethyl-[(1R)-1-phenylethyl]amino]ethoxy]-3,4-dihydro-1H-quinolin-2-one]",≥ 100
3,"O=C1CCc2cc(OCCN3CCCC3c3cc(F)cc(F)c3)ccc2N1 (centres unmarked) [ALDHI-2032, 6-[2-[2-(3,5-difluorophenyl)pyrrolidin-1-yl]ethoxy]-3,4-dihydro-1H-quinolin-2-one]",≥ 100
4,"CN(CCOc1ccc2c(c1)CCC(=O)N2)Cc1cccnc1 [ALDHI-3010, 6-[2-[methyl(3-pyridylmethyl)amino]ethoxy]-3,4-dihydro-1H-quinolin-2-one]",≥ 100
5,"O=C1CCc2cc(OCCn3nccc3-c3cccc(F)c3)ccc2N1 [ALDHI-2023, 6-[2-[5-(3-fluorophenyl)pyrazol-1-yl]ethoxy]-3,4-dihydro-1H-quinolin-2-one]",≥ 100
6,"O=C1CCc2cc(NC(=O)c3ocnc3-c3cccc(F)c3)ccc2N1 [ALDHI-1019, 4-(3-fluorophenyl)-N-(2-oxo-3,4-dihydro-1H-quinolin-6-yl)oxazole-5-carboxamide]",≥ 100
7,"O=C1CCc2cc(NC(=O)c3ncsc3-c3ccsc3)ccc2N1 [ALDHI-1011, N-(2-oxo-3,4-dihydro-1H-quinolin-6-yl)-5-(3-thienyl)thiazole-4-carboxamide]",≥ 100
8,"O=C1CCc2cc(NC(=O)c3scnc3-c3cccs3)ccc2N1 [ALDHI-1023, N-(2-oxo-3,4-dihydro-1H-quinolin-6-yl)-4-(2-thienyl)thiazole-5-carboxamide]",≥ 100
9,"Cc1cccc(-c2ncsc2C(=O)Nc2ccc3c(c2)CCC(=O)N3)c1 [ALDHI-1013, 4-(m-tolyl)-N-(2-oxo-3,4-dihydro-1H-quinolin-6-yl)thiazole-5-carboxamide]",≥ 100
10,"O=C1CCc2cc(NC(=O)c3ncsc3-c3cccnc3)ccc2N1 [ALDHI-1010, N-(2-oxo-3,4-dihydro-1H-quinolin-6-yl)-5-(3-pyridyl)thiazole-4-carboxamide]",≥ 100
11,"O=C1CCc2cc(OCCN3CC(F)(F)CC3c3cccc(F)c3)ccc2N1 (centres unmarked) [ALDHI-2053, 6-[2-[4,4-difluoro-2-(3-fluorophenyl)pyrrolidin-1-yl]ethoxy]-3,4-dihydro-1H-quinolin-2-one]",≥ 100
12,"Cc1noc(-c2ccccc2C(=O)Nc2ccc3c(c2)CCC(=O)N3)n1 [ALDHI-1008, 2-(3-methyl-1,2,4-oxadiazol-5-yl)-N-(2-oxo-1,2,3,4-tetrahydroquinolin-6-yl)benzamide]",≥ 100
13,"CCN(CC)CCN(CCOc1ccc2c(c1)CCC(=O)N2)Cc1ccccc1 [ALDHI-3004, 6-[2-[benzyl-[2-(diethylamino)ethyl]amino]ethoxy]-3,4-dihydro-1H-quinolin-2-one]",≥ 100
14,"O=C1CCc2cc(OCCN(CCO)Cc3cccnc3)ccc2N1 [ALDHI-3005, 6-[2-[2-hydroxyethyl(3-pyridylmethyl)amino]ethoxy]-3,4-dihydro-1H-quinolin-2-one]",≥ 100
15,"O=C1CSc2cc(OCCN3CCCC3c3ccccn3)ccc2N1 (centres unmarked) [ALDHI-2027, 7-[2-[2-(2-pyridyl)pyrrolidin-1-yl]ethoxy]-4H-1,4-benzothiazin-3-one]",≥ 100
16,"O=C1CCc2cc(OCCN3CCCC3c3ccncc3)ccc2N1 (centres unmarked) [ALDHI-2004, 6-[2-[2-(4-pyridyl)pyrrolidin-1-yl]ethoxy]-3,4-dihydro-1H-quinolin-2-one]",≥ 100
17,"COc1cccc(C2CCCN2CCOc2ccc3c(c2)CCC(=O)N3)c1 (centres unmarked) [ALDHI-2034, 6-[2-[2-(3-methoxyphenyl)pyrrolidin-1-yl]ethoxy]-3,4-dihydro-1H-quinolin-2-one]",≥ 100
18,"CCn1cc(C2CCCN2CCOc2ccc3c(c2)CCC(=O)N3)cn1 (centres unmarked) [ALDHI-2016, 6-[2-[2-(1-ethylpyrazol-4-yl)pyrrolidin-1-yl]ethoxy]-3,4-dihydro-1H-quinolin-2-one]",≥ 100
19,"O=C1CCc2cc(NC(=O)c3sccc3-c3cccc(F)c3)ccc2N1 [ALDHI-1022, 3-(3-fluorophenyl)-N-(2-oxo-3,4-dihydro-1H-quinolin-6-yl)thiophene-2-carboxamide]",≥ 100
20,"CC1Oc2cc(OCCN3CCCC3c3cccc(F)c3)ccc2NC1=O (centres unmarked) [ALDHI-2044, 7-[2-[2-(3-fluorophenyl)pyrrolidin-1-yl]ethoxy]-2-methyl-4H-1,4-benzoxazin-3-one]",≥ 100
21,"O=C1CCc2cc(OCCn3ccnc3-c3ccccc3)ccc2N1 [ALDHI-2041, 6-[2-(2-phenylimidazol-1-yl)ethoxy]-3,4-dihydro-1H-quinolin-2-one]",≥ 100
22,"O=C1CCc2cc(NC(=O)c3sc(N4CCOCC4)nc3-c3cccc(F)c3)ccc2N1 [ALDHI-1001, 4-(3-fluorophenyl)-2-morpholino-N-(2-oxo-3,4-dihydro-1H-quinolin-6-yl)thiazole-5-carboxamide]",≥ 100
23,"O=C1CCc2cc(NC(=O)c3scnc3-c3cccc(F)c3)ccc2N1 [ALDHI-1003, 4-(3-fluorophenyl)-N-(2-oxo-3,4-dihydro-1H-quinolin-6-yl)thiazole-5-carboxamide]",≥ 100

# Source: patent publication US20240174634A1, “Aldehyde Dehydrogenase Inhibitors and Their Therapeutic Use” (priority 2020, published 2024)
